Starred links: 1 amine or outer side, 2 acyl side, 3 side chain; linkers in the order of their positions; H or OH if unused. Non-standard residues stand in square brackets, D forms with d. Residues, ends and D or L forms follow the SMILES beside them. *: point of attachment. C20 diacid = O=C(O)CCCCCCCCCCCCCCCCCCC(=O)*; γGlu = O=C(O)[C@H](CCC(=O)[*:2])N[*:1]; βAsp = O=C(O)[C@H](CC(=O)[*:2])N[*:1]; AEEA = NCCOCCOCC(=O)O; Inp = O=C(O)C1CCNCC1
Biological target: T1, human amylin receptors (Homo sapiens, UniProt O60896+P30988)
T1 construct: host or cells: CHO-K1/Ga15/AMY3 cells, further stably transfected with a CRE-luciferase plasmid
T1 sequence (P30988 25-474): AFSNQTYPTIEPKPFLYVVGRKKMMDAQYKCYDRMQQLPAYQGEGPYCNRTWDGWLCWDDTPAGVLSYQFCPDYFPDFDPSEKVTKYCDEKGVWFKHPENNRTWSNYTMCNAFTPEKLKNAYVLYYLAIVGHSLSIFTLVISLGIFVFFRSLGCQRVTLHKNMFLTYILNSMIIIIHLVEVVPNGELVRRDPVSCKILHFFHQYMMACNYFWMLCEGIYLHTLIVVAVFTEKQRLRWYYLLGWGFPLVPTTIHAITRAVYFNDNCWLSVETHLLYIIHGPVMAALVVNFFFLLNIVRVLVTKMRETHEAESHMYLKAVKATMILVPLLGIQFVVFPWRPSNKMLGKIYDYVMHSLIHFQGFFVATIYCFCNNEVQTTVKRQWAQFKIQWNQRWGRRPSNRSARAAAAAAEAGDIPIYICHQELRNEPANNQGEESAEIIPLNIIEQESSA
T1 sequence (O60896 24-148 partner): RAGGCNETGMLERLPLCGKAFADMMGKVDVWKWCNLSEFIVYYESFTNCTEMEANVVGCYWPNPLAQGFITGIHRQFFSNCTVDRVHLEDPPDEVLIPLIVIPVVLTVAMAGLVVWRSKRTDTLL
Assay: Luciferase assay in stably transfected amylin receptor/CRE-luc CHO cell line
Assay type: cell-based
Conditions: for Relative activity: EC50 ratio of Cagrilintide to the compound, Cagrilintide 100%; for EC50: amylin receptor/CRE-luc CHO cells, 24 hours incubation, luminescence
Excerpt: The objective of this assay is to test the potency of derivatives of polypeptides of the present application on human amylin receptors in vitro using a luciferase assay. Using the standard protocol, CHO-K1/Ga15/AMY3 cells (purchased from GenScript, with the calcitonin receptor and the receptor activity modifying peptide (RAMP) constructed already) were transfected with a plasmid containing a luciferase expression cassette driven by multiple copies of cAMP response elements (CREs). The cells were cultured in an F12 medium containing 200 μg/mL Zeocin, 2 μg/mL puromycin, 100 μg/mL hygromycin, and 400 μg/mL G418 to afford a stably transfected amylin receptor/CRE-luc cell line. The lyophilized powder from Example 1 was dissolved in 20 mM phosphate buffer solution with a pH of 7.0, and diluted in a growth medium (F12 culture medium containing 10% FBS) to give a derivative sample with an initial concentration of 10 nM, which was then subjected to a 5-fold serial dilution in the growth medium to obtain seven samples with concentrations between […]. In each well of a white 96-well plate, 50 μL of the tested sample solution was added with a corresponding concentration. The stably transfected amylin receptor/CRE-luc CHO cells were resuspended in the growth medium at a certain density, and 50 μL of the cell suspension was added at a density of about 20000 cells per well to the white 96-well plate containing the tested sample solution. After incubation of 24 hours at 37° C. and 5% CO2, 100 μL of a Luciferase substrate was added to each well, incubated for 3 minutes, and finally was tested for luminescence on SpectraMax L (Molecular Devices) with the software SoftMax Pro 7.0.3 GxP.

SMILES | Relative activity [%] | EC50 [nM]
CC[C@H](C)[C@H](NC(=O)[C@H](CC(=O)O)NC(=O)[C@H](CCCNC(=N)N)NC(=O)[C@H](CC(=O)O)NC(=O)[C@H](CCCNC(=N)N)NC(=O)[C@H](CC(=O)O)NC(=O)[C@@H](NC(=O)[C@H](Cc1ccccc1)NC(=O)[C@H](Cc1c[nH]cn1)NC(=O)[C@H](CCCNC(=N)N)NC(=O)[C@H](CC(C)C)NC(=O)[C@H](Cc1ccccc1)NC(=O)[C@H](CC(=O)O)NC(=O)[C@H](C)NC(=O)[C@H](CC(C)C)NC(=O)[C@H](CCCNC(=N)N)NC(=O)[C@H](CCC(N)=O)NC(=O)[C@@H](NC(=O)[C@H](C)NC(=O)[C@H](C)NC(=O)[C@@H](NC(=O)[C@H](CO)NC(=O)[C@H](CC(C)C)NC(=O)[C@H](CCC(N)=O)NC(=O)[C@H](CO)NC(=O)[C@H](C)NC(=O)C1CCN(C(=O)CCCCCCCCCCCCCCCCCCC(=O)O)CC1)[C@@H](C)O)[C@@H](C)O)[C@@H](C)O)C(=O)N[C@@H](CC(C)C)C(=O)N1CCC[C@H]1C(=O)N1CCC[C@H]1C(=O)N[C@H](C(=O)N[C@@H](CC(N)=O)C(=O)N[C@H](C(=O)NCC(=O)N[C@@H](CO)C(=O)N[C@@H](CC(N)=O)C(=O)N[C@H](C(=O)N1CCC[C@H]1C(N)=O)[C@@H](C)O)C(C)C)[C@@H](C)O [M15] ({C20 diacid-Inp}-ASQLSTAATQRLADFLRHFTDRDRDILPPTNVGSNTP-NH2) | 81 | 0.03
CC[C@H](C)[C@H](NC(=O)[C@H](CC(=O)O)NC(=O)[C@H](CCCNC(=N)N)NC(=O)[C@H](CC(=O)O)NC(=O)[C@H](CCCNC(=N)N)NC(=O)[C@H](CC(=O)O)NC(=O)[C@@H](NC(=O)[C@H](Cc1ccccc1)NC(=O)[C@H](Cc1c[nH]cn1)NC(=O)[C@H](CCCNC(=N)N)NC(=O)[C@H](CC(C)C)NC(=O)[C@H](Cc1ccccc1)NC(=O)[C@H](CC(=O)O)NC(=O)[C@H](C)NC(=O)[C@H](CC(C)C)NC(=O)[C@H](CCCNC(=N)N)NC(=O)[C@H](CCC(N)=O)NC(=O)[C@@H](NC(=O)[C@H](C)NC(=O)[C@H](C)NC(=O)[C@@H](NC(=O)[C@H](CO)NC(=O)[C@H](CC(C)C)NC(=O)[C@H](CCC(N)=O)NC(=O)[C@H](CO)NC(=O)[C@H](C)NC(=O)COCCOCCNC(=O)COCCOCCNC(=O)CC[C@H](NC(=O)CCCCCCCCCCCCCCCCCCC(=O)O)C(=O)O)[C@@H](C)O)[C@@H](C)O)[C@@H](C)O)C(=O)N[C@@H](CC(C)C)C(=O)N1CCC[C@H]1C(=O)N1CCC[C@H]1C(=O)N[C@H](C(=O)N[C@@H](CC(N)=O)C(=O)N[C@H](C(=O)NCC(=O)N[C@@H](CO)C(=O)N[C@@H](CC(N)=O)C(=O)N[C@H](C(=O)N1CCC[C@H]1C(N)=O)[C@@H](C)O)C(C)C)[C@@H](C)O [M16] ({C20 diacid-γGlu-AEEA-AEEA}-ASQLSTAATQRLADFLRHFTDRDRDILPPTNVGSNTP-NH2) | 58 | 0.042
CC[C@H](C)[C@H](NC(=O)[C@H](CC(=O)O)NC(=O)[C@H](CCCNC(=N)N)NC(=O)[C@H](CC(=O)O)NC(=O)[C@H](CCCNC(=N)N)NC(=O)[C@H](CC(=O)O)NC(=O)[C@@H](NC(=O)[C@H](Cc1ccccc1)NC(=O)[C@H](Cc1c[nH]cn1)NC(=O)[C@H](CCCNC(=N)N)NC(=O)[C@H](CC(C)C)NC(=O)[C@H](Cc1ccccc1)NC(=O)[C@H](CC(=O)O)NC(=O)[C@H](C)NC(=O)[C@H](CC(C)C)NC(=O)[C@H](CCCNC(=N)N)NC(=O)[C@H](CCC(N)=O)NC(=O)[C@@H](NC(=O)[C@H](C)NC(=O)[C@H](C)NC(=O)[C@@H](NC(=O)[C@H](CO)NC(=O)[C@H](CC(C)C)NC(=O)[C@H](CCC(N)=O)NC(=O)[C@H](CO)NC(=O)[C@H](C)NC(=O)COCCOCCNC(=O)COCCOCCNC(=O)C[C@H](NC(=O)CCCCCCCCCCCCCCCCCCC(=O)O)C(=O)O)[C@@H](C)O)[C@@H](C)O)[C@@H](C)O)C(=O)N[C@@H](CC(C)C)C(=O)N1CCC[C@H]1C(=O)N1CCC[C@H]1C(=O)N[C@H](C(=O)N[C@@H](CC(N)=O)C(=O)N[C@H](C(=O)NCC(=O)N[C@@H](CO)C(=O)N[C@@H](CC(N)=O)C(=O)N[C@H](C(=O)N1CCC[C@H]1C(N)=O)[C@@H](C)O)C(C)C)[C@@H](C)O [M18] ({C20 diacid-βAsp-AEEA-AEEA}-ASQLSTAATQRLADFLRHFTDRDRDILPPTNVGSNTP-NH2) | 110 | 

The remaining lines, values ahead:

Relative activity [%] | EC50 [nM] | SMILES
94 | 0.026 | CC[C@H](C)[C@H](NC(=O)[C@H](CC(=O)O)NC(=O)[C@H](CCCNC(=N)N)NC(=O)[C@H](CC(=O)O)NC(=O)[C@H](CCCNC(=N)N)NC(=O)[C@H](CC(=O)O)NC(=O)[C@@H](NC(=O)[C@H](Cc1ccccc1)NC(=O)[C@H](Cc1c[nH]cn1)NC(=O)[C@H](CCCNC(=N)N)NC(=O)[C@H](CC(C)C)NC(=O)[C@H](Cc1ccccc1)NC(=O)[C@H](CC(=O)O)NC(=O)[C@H](C)NC(=O)[C@H](CC(C)C)NC(=O)[C@H](CCCNC(=N)N)NC(=O)[C@H](CCC(N)=O)NC(=O)[C@@H](NC(=O)[C@H](C)NC(=O)[C@H](C)NC(=O)[C@@H](NC(=O)[C@H](CO)NC(=O)[C@H](CC(C)C)NC(=O)[C@H](CCC(N)=O)NC(=O)[C@H](CO)NC(=O)[C@H](C)NC(=O)COCCOCCNC(=O)COCCOCCNC(=O)[C@H](CCC(=O)O)NC(=O)CCCCCCCCCCCCCCCCCCC(=O)O)[C@@H](C)O)[C@@H](C)O)[C@@H](C)O)C(=O)N[C@@H](CC(C)C)C(=O)N1CCC[C@H]1C(=O)N1CCC[C@H]1C(=O)N[C@H](C(=O)N[C@@H](CC(N)=O)C(=O)N[C@H](C(=O)NCC(=O)N[C@@H](CO)C(=O)N[C@@H](CC(N)=O)C(=O)N[C@H](C(=O)N1CCC[C@H]1C(N)=O)[C@@H](C)O)C(C)C)[C@@H](C)O [M17] ({C20 diacid}-E[AEEA][AEEA]ASQLSTAATQRLADFLRHFTDRDRDILPPTNVGSNTP-NH2)
80 | 0.036 | CC[C@H](C)[C@H](NC(=O)[C@H](CC(=O)O)NC(=O)[C@H](CCCNC(=N)N)NC(=O)[C@H](CC(=O)O)NC(=O)[C@H](CCCNC(=N)N)NC(=O)[C@H](CC(=O)O)NC(=O)[C@@H](NC(=O)[C@H](Cc1ccccc1)NC(=O)[C@H](Cc1c[nH]cn1)NC(=O)[C@H](CCCNC(=N)N)NC(=O)[C@H](CC(C)C)NC(=O)[C@H](Cc1ccccc1)NC(=O)[C@H](CC(=O)O)NC(=O)[C@H](C)NC(=O)[C@H](CC(C)C)NC(=O)[C@H](CCCNC(=N)N)NC(=O)[C@H](CCC(N)=O)NC(=O)[C@@H](NC(=O)[C@H](C)NC(=O)[C@H](C)NC(=O)[C@@H](NC(=O)[C@H](CO)NC(=O)[C@H](CC(C)C)NC(=O)[C@H](CCC(N)=O)NC(=O)[C@H](CO)NC(=O)[C@H](C)NC(=O)COCCOCCNC(=O)COCCOCCNC(=O)[C@H](CC(=O)O)NC(=O)CCCCCCCCCCCCCCCCCCC(=O)O)[C@@H](C)O)[C@@H](C)O)[C@@H](C)O)C(=O)N[C@@H](CC(C)C)C(=O)N1CCC[C@H]1C(=O)N1CCC[C@H]1C(=O)N[C@H](C(=O)N[C@@H](CC(N)=O)C(=O)N[C@H](C(=O)NCC(=O)N[C@@H](CO)C(=O)N[C@@H](CC(N)=O)C(=O)N[C@H](C(=O)N1CCC[C@H]1C(N)=O)[C@@H](C)O)C(C)C)[C@@H](C)O [M19] ({C20 diacid}-D[AEEA][AEEA]ASQLSTAATQRLADFLRHFTDRDRDILPPTNVGSNTP-NH2)

From patent publication US20260265329A1, “POLYPEPTIDE AND DERIVATIVE THEREOF, COMPOSITION, AND USE THEREOF” (HANGZHOU SCIWIND BIOSCIENCES CO., LTD., priority 2023, published 2026)
